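All cell lines were grown in 96-well plates and treated with compound for 48 hours. GI50 = concentration required for 50% inhibition of growth.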 The source made the active and inactive calls. No stated cut-off is given here; in the data, active = GI50 up to about 1.1 µM and inactive = higher.
Tests used:
Assay in all cases: growth of human tumour cells (NCI), 48 h
DU-145 = system: DU-145
UACC-62 = system: UACC-62
LOX IMVI = system: LOX IMVI
MDA-MB-435 = system: MDA-MB-435
RPMI-8226 = system: RPMI-8226
COLO 205 = system: COLO 205
SF-268 = system: SF-268
T47D = system: T47D
SK-MEL-2 = system: SK-MEL-2
IGROV-1 = system: IGROV-1
M14 = system: M14
HOP-62 = system: HOP-62
ACHN = system: ACHN
MDA-MB-231 = system: MDA-MB-231
Malme-3M = system: Malme-3M
NCI-H522 = system: NCI-H522
BT-549 = system: BT-549
DMS-273 = system: DMS-273
DLD-1 = system: DLD-1

Measured: GI50

c1ccc(CSC2(SCc3ccccc3)CCCC2)cc1
inactive: DU-145 > 10 µM | UACC-62 > 10 µM | LOX IMVI > 10 µM | MDA-MB-435 > 10 µM | RPMI-8226 > 10 µM | COLO 205 > 10 µM | SF-268 > 10 µM | T47D > 10 µM | SK-MEL-2 > 10 µM | IGROV-1 > 10 µM | M14 > 10 µM | HOP-62 > 10 µM | ACHN > 10 µM | MDA-MB-231 > 10 µM | Malme-3M > 10 µM | NCI-H522 > 10 µM

CC(=O)OCC1OC(n2c3c(c(-c4ccco4)c(C#N)c2=S)CCC3)C(OC(C)=O)C(OC(C)=O)C1OC(C)=O (centres undefined)
inactive: DU-145 > 100 µM | UACC-62 42.2 µM | LOX IMVI 60.1 µM | MDA-MB-435 68.9 µM | RPMI-8226 28.1 µM | COLO 205 > 100 µM | SF-268 > 100 µM | BT-549 43.9 µM | SK-MEL-2 > 100 µM | IGROV-1 69.3 µM | M14 > 100 µM | HOP-62 > 100 µM | ACHN > 100 µM | Malme-3M > 100 µM

C[C@]12CC[C@H]3[C@@H](CCC4=CC(=O)CC[C@@]43C)[C@@H]1CC[C@@H]2C(=O)COS(=O)(=O)c1ccc(Br)cc1
inactive: DU-145 16.8 µM | UACC-62 16 µM | LOX IMVI 1.61 µM | MDA-MB-435 9.55 µM | RPMI-8226 2.35 µM | COLO 205 20.5 µM | SF-268 8.93 µM | T47D 9.35 µM | BT-549 10 µM | SK-MEL-2 8.38 µM | IGROV-1 1.6 µM | M14 6.55 µM | HOP-62 17 µM | ACHN 10.9 µM | MDA-MB-231 6.49 µM | Malme-3M 3.49 µM | NCI-H522 1.59 µM

COc1c(Br)cc(CC(N)=O)c(O)c1Br
inactive: UACC-62 > 100 µM | LOX IMVI > 100 µM | COLO 205 > 100 µM | SF-268 > 100 µM | SK-MEL-2 > 100 µM | DMS-273 > 100 µM | IGROV-1 > 100 µM | DLD-1 > 100 µM | HOP-62 > 100 µM | ACHN > 100 µM | Malme-3M > 100 µM | NCI-H522 > 100 µM

Cc1cc(C)n(C(=C(C(Cl)=C(Cl)Cl)[N+](=O)[O-])n2nc(C)cc2C)n1
inactive: DU-145 4.12 µM | UACC-62 4.06 µM | LOX IMVI 2.1 µM | MDA-MB-435 2.19 µM | COLO 205 2.08 µM | SF-268 4.23 µM | T47D 4.05 µM | BT-549 4.56 µM | SK-MEL-2 1.37 µM | IGROV-1 4.03 µM | M14 3.8 µM | HOP-62 5.04 µM | ACHN 3.21 µM | MDA-MB-231 7.41 µM | Malme-3M 2.98 µM | NCI-H522 2.73 µM

CN(/N=C1\C(=O)Nc2ccccc21)c1ccccc1
inactive: DU-145 > 100 µM | UACC-62 > 100 µM | LOX IMVI > 100 µM | MDA-MB-435 > 100 µM | RPMI-8226 74.3 µM | COLO 205 > 10 µM | SF-268 43.2 µM | T47D 34.7 µM | SK-MEL-2 > 100 µM | IGROV-1 36.6 µM | M14 74.6 µM | HOP-62 49.7 µM | ACHN 77.6 µM | MDA-MB-231 9.4 µM | Malme-3M 31.9 µM | NCI-H522 87.3 µM

CN(C)CCCn1c(-c2cc(C(C)(C)C)c(O)c(C(C)(C)C)c2)cs/c1=N\c1ccccc1
inactive: UACC-62 2.3 µM | MDA-MB-435 2.34 µM | RPMI-8226 1.4 µM | SF-268 1.85 µM | BT-549 3.13 µM | SK-MEL-2 3.06 µM | M14 1.72 µM | HOP-62 1.89 µM | ACHN 2.98 µM | MDA-MB-231 2.34 µM

Nc1n[c-](N)[n+](=O)c(N)c1NCO
inactive: DU-145 > 100 µM | UACC-62 > 100 µM | LOX IMVI > 100 µM | MDA-MB-435 > 100 µM | RPMI-8226 > 100 µM | COLO 205 > 100 µM | SF-268 > 100 µM | T47D > 100 µM | BT-549 > 100 µM | SK-MEL-2 > 100 µM | IGROV-1 > 100 µM | M14 > 100 µM | HOP-62 > 100 µM | ACHN > 100 µM | MDA-MB-231 > 100 µM | Malme-3M > 100 µM | NCI-H522 > 100 µM

COc1cc(C2C(C(=O)O)=C(CO)Oc3cc4c(cc32)OCO4)cc(OC)c1O (centres undefined)
inactive: UACC-62 > 100 µM | LOX IMVI > 100 µM | RPMI-8226 > 100 µM | COLO 205 > 100 µM | DMS-273 > 100 µM | IGROV-1 > 100 µM | DLD-1 > 100 µM | M14 > 100 µM | HOP-62 > 100 µM | ACHN > 100 µM | Malme-3M > 100 µM

Cc1cnc(/N=c2\sc(C)cn2-c2ncc(C)s2)s1
inactive: DU-145 > 100 µM | UACC-62 > 100 µM | LOX IMVI > 100 µM | MDA-MB-435 > 100 µM | RPMI-8226 > 100 µM | COLO 205 > 100 µM | SF-268 > 100 µM | T47D > 100 µM | BT-549 > 100 µM | IGROV-1 > 100 µM | M14 > 100 µM | HOP-62 > 100 µM | ACHN > 100 µM | MDA-MB-231 > 100 µM | Malme-3M > 100 µM | NCI-H522 > 100 µM

CC(=O)C1CC[C@@H]2[C@H](CC[C@]3(C)[C@@H](O)CC[C@@H]23)[C@H]1C(=O)O (some centres undefined)
inactive: UACC-62 > 100 µM | MDA-MB-435 > 100 µM | RPMI-8226 > 100 µM | COLO 205 > 100 µM | SF-268 > 100 µM | BT-549 > 100 µM | SK-MEL-2 > 100 µM | IGROV-1 > 100 µM | M14 > 100 µM | HOP-62 > 100 µM | MDA-MB-231 > 100 µM | Malme-3M > 100 µM | NCI-H522 > 100 µM

ClCC1(CCl)COC1
inactive: DU-145 > 100 µM | LOX IMVI > 100 µM | MDA-MB-435 > 100 µM | COLO 205 > 100 µM | SF-268 > 100 µM | T47D > 100 µM | M14 > 100 µM | ACHN > 100 µM | MDA-MB-231 > 100 µM | NCI-H522 > 100 µM

O=C(NN1C(=O)CS(=O)(=O)C1c1ccc(Cl)c(Cl)c1)c1ccncc1 (centres undefined)
inactive: UACC-62 > 100 µM | LOX IMVI > 95.9 µM | RPMI-8226 > 41.7 µM | COLO 205 > 100 µM | SF-268 > 81.5 µM | SK-MEL-2 > 100 µM | DMS-273 > 31.6 µM | IGROV-1 > 100 µM | DLD-1 > 100 µM | HOP-62 > 100 µM | Malme-3M > 100 µM | NCI-H522 66.1 µM

O=C(O)Cc1cc(F)ccc1C(=O)O
inactive: DU-145 > 100 µM | UACC-62 > 100 µM | LOX IMVI > 100 µM | MDA-MB-435 > 100 µM | RPMI-8226 > 100 µM | COLO 205 > 100 µM | SF-268 > 100 µM | T47D > 100 µM | BT-549 > 100 µM | SK-MEL-2 > 100 µM | IGROV-1 23.6 µM | M14 > 100 µM | HOP-62 > 100 µM | ACHN > 100 µM | MDA-MB-231 > 100 µM | NCI-H522 92 µM

Cc1ccc(Nc2nc3ccccc3nc2NS(=O)(=O)c2ccc(N)cc2)cc1
inactive: DU-145 97.9 µM | UACC-62 36.1 µM | LOX IMVI 70.3 µM | MDA-MB-435 30.7 µM | RPMI-8226 23.6 µM | COLO 205 45.8 µM | SF-268 89.7 µM | T47D 44 µM | BT-549 5.35 µM | SK-MEL-2 29.4 µM | IGROV-1 56.8 µM | M14 57.7 µM | HOP-62 > 100 µM | ACHN 38.5 µM | MDA-MB-231 > 100 µM | Malme-3M 91.2 µM | NCI-H522 25.2 µM

CN(C)CCNC(=O)c1cccc2ccc(-c3ccc(F)cc3)nc12
inactive: UACC-62 3.95 µM | LOX IMVI 3.32 µM | RPMI-8226 3.31 µM | COLO 205 2.43 µM | SF-268 5.27 µM | SK-MEL-2 9.18 µM | DMS-273 2.82 µM | IGROV-1 4.16 µM | DLD-1 3.64 µM | HOP-62 11.7 µM | Malme-3M 4.9 µM | NCI-H522 3.91 µM

CC(=O)OC(OC(C)=O)n1cc(C=O)c2ccccc21
inactive: DU-145 > 100 µM | LOX IMVI > 100 µM | RPMI-8226 > 100 µM | COLO 205 > 100 µM | T47D > 100 µM | SK-MEL-2 > 100 µM | IGROV-1 > 10 µM | M14 > 100 µM | HOP-62 > 100 µM | ACHN > 100 µM | MDA-MB-231 > 100 µM | NCI-H522 > 100 µM

c1ccc(NN/N=N/c2ccc(-c3nc4ccccc4[nH]3)cc2)cc1
inactive: DU-145 42.7 µM | LOX IMVI 15.2 µM | MDA-MB-435 19.4 µM | RPMI-8226 14.2 µM | COLO 205 23.1 µM | T47D 8.17 µM | BT-549 29.4 µM | SK-MEL-2 23.9 µM | IGROV-1 27.8 µM | M14 10.6 µM | HOP-62 41.3 µM | ACHN 25.8 µM | MDA-MB-231 72.8 µM | Malme-3M 28.7 µM | NCI-H522 24.7 µM

C[N+](C)([O-])CCOc1cc2c(c3ccccc13)-c1ccccc1C2=O
inactive: UACC-62 14.4 µM | LOX IMVI 4.31 µM | RPMI-8226 12.3 µM | COLO 205 16.3 µM | SF-268 10.9 µM | SK-MEL-2 18.4 µM | DMS-273 16.3 µM | IGROV-1 19.1 µM | DLD-1 17 µM | HOP-62 14.2 µM | Malme-3M 14 µM | NCI-H522 10.2 µM

Source: ChEMBL document CHEMBL1201862, “PubChem BioAssay data set” (2004)
